Data taken from US8478395B2, “Method of measuring electrical resistance value of corneal trans-epithelium” (Nagasaki University, priority 2008, dated 2013).

Assays:
[1] = test system: cornea of a living rabbit; experiment: Living corneal TER measurement requiring no anterior chamber centesis (conjunctival sac method); type: in vivo; settings: 0.02% BAC
Experimental: Evaluation of Corneal Disorder Due to BAC by Living Corneal TER Measurement Requiring No Anterior Chamber Centesis (Referred to as Conjunctival Sac Method) (FIG. 1)
Silver-silver chloride electrode having a rod shape was placed on a cornea and into a conjunctival sac of a living rabbit, and a 0.02% BAC was administered thereto. A change in the corneal TER due to exposure to BAC was measured by a voltage-electric resistance value measuring device. A rubber ring (6 mm in the inner diameter) was fixed onto the cornea around the periphery of the electrode by using a bioadhesive (Aron alpha A from Sankyo Co., Ltd.) for insulation, so that an electric current is surely passed through the epithelium of the cornea. An AC current of ±20 μA was flowed, and a change curve of TER, a reduction of TER and a TER value after a lapse of 60 seconds from the exposure to 0.02% BAC, were compared with those from the conventional measuring method in which the anterior chamber centesis was carried out (comparative example 1). The TER value was calculated by subtracting an electric resistance value between the anterior chamber and the conjunctival sac obtained in a preliminary experiment from the measured value.

[2] = test system: cornea of a living rabbit; experiment: Corneal TER measurement with the integrated TER measuring device of FIG. 6; type: in vivo, Japanese white rabbit; settings: 0.02% BAC dropped onto the eye, one minute after the administration, device of FIG. 6, n=3
Text: A silver electrode and a silver-silver chloride electrode having a diameter of 1 mm were placed on a round cover glass having a diameter of 12 mm. PDMS having a circular cylinder shape with 10 mm in diameter and 6 mm in inner diameter and having a curvature radius of the corneal contact surface of 7.9 mm was secured onto the cover glass by using an adhesive. An Eppendorf tube was attached to a rear side (on the side opposite to the corneal contact surface (cover glass side)) for mount onto a slit-lamp. The inner space of the PDMS was filled with an atelocollagen gel and its curvature radius was adjusted to 7.9 mm.
A silver electrode and a silver chloride electrode having a diameter of 1 mm were placed on a PET sheet of 0.005×0.5×1 cm, at position of 1 mm from the distal end of the sheet on the eyeball side. The PET sheet, the silver electrode and the silver chloride electrode were thinly coated with a collagen gel. […]
By using thus prepared TER measuring device, a change in the corneal TER of a living rabbit was measured. […]
A 0.02% BAC was dropped onto the eye of the rabbit, and the resulting TER value was compared with the TER value before the administration. […] Prior to the BAC administration (indicated as “normal cornea” in FIG. 7) as well as after the BAC administration, within one second after the device was contacted with the cornea, a stable TER value could be measured.

cornea of a rabbit = experiment: Living corneal TER measurement using anterior chamber centesis (anterior chamber centesis method); type: in vivo; settings: 0.02% BAC
Experimental: Evaluation of Corneal Disorder Due to BAC by Living Corneal TER Measurement Using Anterior Chamber Centesis (Referred to as “Anterior Chamber Centesis Method”)
In accordance with the method described in non-Patent Document 4 supra, electrodes were placed on a cornea and into an anterior chamber of a rabbit, and after administration of 0.02% BAC, a corneal TER was measured.

TER value ([1]; after a lapse of 60 seconds): 175±14 Ωcm^2
TER (TER before the administration of the BAC set to 100%) ([1]; after a lapse of 60 seconds, p<0.01): 13.5±2.1%
TER (TER before the administration of the BAC set to 100%) ([1]; ten seconds after the administration): 35.1±6.8%
Change of TER compared with the TER value before the administration [2]: significantly reduced
TER (TER before the administration of the BAC set to 100%) (cornea of a rabbit; 60 seconds after the administration): 19.7±5.9%
TER value (cornea of a rabbit; after a lapse of 60 seconds): 138±10 Ωcm^2
Substance: benzalkonium chloride [BAC]
